This is an account of results in US6200591A, “Method of administration of sildenafil to produce instantaneous response for the treatment of erectile dysfunction” (priority 1998, dated 2001).

Usually solubility stands for the concentration that dissolves in the medium under given conditions.

“Also recorded” adds a separate entry of the source. Where a name gives a salt, the structure may show the parent alone. Ends that are not written are not given here.

The conditions of data set [1]: intracavernosal, cited from earlier work; for Results of i.c. injection in erectile dysfunction: either alone or in combination.
Data set [2] is described as follows: Absorption of solubilized sildenafil from the nasal cavity of rats (blood concentration after intranasal vs intravenous administration). It counts as in vivo. To be noted: for Concentration of sildenafil in the blood of rats, intranasal, mean: n = 5; for Concentration of sildenafil in the blood of rats, intravenous, mean: n = 3. The protocol: These experiments determine the bioavailability of sildenafil, or derivatives thereof, after nasal administration and compare it to that after intravenous administration. In particular, the present experiment determined the absorption of sildenafil into the blood of rats following intranasal administration of a formulation in which the sildenafil was solubilized by the addition of mesylic acid (see below).
The nasal absorption of sildenafil, or derivatives thereof, were measured using an in vivo technique in rats. Rats were fasted overnight prior to experimentation. Surgical procedures were performed under equithesin anesthesia (3 ml/kg, i.p.). An incision was made in the neck of each rat, and the trachea cannulated with polyethylene tubing (PF-260). A closed end tube was inserted through the esophagus to the posterior part of the nasal cavity to prevent drug from entering the esophagus. The nasopalatine passage was closed with an adhesive agent to prevent drainage of the drug from the nasal cavity to the mouth.
The jugular vein and femoral artery were cannulated with polyethylene tubing for intravenous drug administration and intra-arterial blood sampling.
Solutions of sildenafil hydrochloride (2 and 4 mg/rat/50 μl) were prepared in water and administered through the right nostril using a microsyringe. For intravenous administration, the same dose of the drug was injected into the jugular vein (1 ml/kg body weight). […]
Bioavailability of nasally administered drug was calculated by comparing the plasma drug concentrations between nasal and intravenous delivery routes and expressed as a percentage of the intravenous bioavailability.
The solution instilled into the nasal cavities of the rats in this experiment had the following composition:
Adjust the pH to 2.8 to 3.0 with 0.05M NaOH
At various times following the intranasal and intravenous administration of sildenafil to rats, the concentrations of sildenafil in blood were determined using the following analytical method:
One hundred microliters of rat plasma was treated with 25 microliters of 1M monochloroacetic acid to denature the plasma proteins and release free sildenafil. Seventy-five microliters of acetonitrile was then added to precipitate the proteins. This solution was centifuged for 5 minutes at 5,000 g. The clear supernatant was injected onto the HPLC column.
The HPLC system consisted of the following:
The concentrations are expressed as areas under the HPLC curves×10^-4.

Data set [3] can be described thus: Peak plasma concentration time / response in humans, current oral tablet formulation vs intranasal route. The conditions noted are these: indicated by rat results. It counts as in vivo.
For data set [4] the following is noted: currently used oral route; cited from earlier work.
For data set [5] the following is noted: sublingual, cited from earlier work.
For data set [6] the following is noted: cited from earlier work.
Data set [7] is described as follows: Solubility of the citrate salt in water. It counts as physicochemical.

As for `CCCCC[C@H](O)/C=C/[C@H]1[C@H](O)CC(=O)[C@@H]1CCCCCCC(=O)O` [PGE-1], the “Results of i.c. injection in erectile dysfunction” value (from here on “Results of i.c. injection”) in data set [1] is recorded as “good results”.

As for `CCCc1nn(C)c2c(=O)[nH]c(-c3cc(S(=O)(=O)N4CCN(C)CC4)ccc3OCC)nc12` [Sildenafil, 5-[2-ethoxy-5-(4-methyl-1-piperazinylsulphonyl)-phenyl]-1-methyl-3-n-propyl-1,6-dihydro-7H-pyrazolo[4,3-d]pyrimidin-7-one], in data set [2] (intranasal vs intravenous), the “Effectiveness of intranasal compared with intravenous administration” value is listed as “as effective as intravenous administration”. The “Absorption following intranasal administration” value in data set [2] (intranasal, comparison of areas under blood concentration versus time curves with intravenous (FIG. 1)) was “complete and very rapid absorption; also recorded: rapidly and complete absorbed”. The “Concentration of sildenafil in the blood of rats, intranasal, mean” value in data set [2] (intranasal) is on record as 11.7 areas under the HPLC curves×10; in data set [2] (intranasal, time 2 min) it was 12.1 areas under the HPLC curves×10; in data set [2] (intranasal, time 5 min), 25.5 areas under the HPLC curves×10; in data set [2] (intranasal, time 10 min) it was 38.2 areas under the HPLC curves×10; in data set [2] (intranasal, time 15 min), 43.5 areas under the HPLC curves×10; in data set [2] (intranasal, time 20 min), 32.6 areas under the HPLC curves×10. Also, the “Concentration of sildenafil in the blood of rats, intranasal, mean” value in data set [2] (intranasal, time 30 min) was 31.0 areas under the HPLC curves×10; in data set [2] (intranasal, time 40 min), 22.7 areas under the HPLC curves×10; in data set [2] (intranasal, time 50 min), 19.6 areas under the HPLC curves×10. The “Concentration of sildenafil in the blood of rats, intravenous, mean” value in data set [2] (time 0 min) is recorded as 188.8 areas under the HPLC curves×10; in data set [2] (time 2 min) it was 84.7 areas under the HPLC curves×10; in data set [2] (time 5 min), 47.7 areas under the HPLC curves×10; in data set [2] (time 10 min), 32.0 areas under the HPLC curves×10; in data set [2] (time 15 min), 19.5 areas under the HPLC curves×10; in data set [2] (time 20 min) it was 17.9 areas under the HPLC curves×10. Moreover, the “Concentration of sildenafil in the blood of rats, intravenous, mean” value was 16.0 areas under the HPLC curves×10 in data set [2] (time 30 min), 14.6 areas under the HPLC curves×10 in data set [2] (time 40 min) and 7.6 areas under the HPLC curves×10 in data set [2] (time 50 min). Besides, the Tmax in data set [2] (rat, in vivo, rats, intranasal, approximately, read-out: Time of peak blood concentration) lay in the range of 10 to 15 min. In addition, in data set [3], the “Response in humans, intranasal route vs current oral tablet” value was “much more rapid response”. In addition, in data set [4], the “Time to response, oral route” value is not below 60 min.

For `CN1CCc2cccc3c2[C@H]1Cc1ccc(O)c(O)c1-3` [apomorphine], the “Effect on erectile function” value in data set [5] was “restore normal erectile function”. Further, in data set [5] (men whose dysfunction had psychological origins), the “Men returned to sexual potency” value is recorded as “about 70%”.

With `O=[N+]([O-])OCC(CO[N+](=O)[O-])O[N+](=O)[O-]` [glyceryl trinitrate (GTN), glyceryl trinitrate], in data set [6], the “Effect of patches applied to the penis” value is reported as “effective”; the “Side-effects of patches applied to the penis” value was “produces side-effects in both patient and partner”.

`COc1ccc(Cc2nccc3cc(OC)c(OC)cc23)cc1OC` [papaverine]: the “Results of i.c. injection” value in data set [1] is on record as “good results”.

With `CC(COc1ccccc1)N(CCCl)Cc1ccccc1` (stereo not drawn) [phenoxybenzamine], in data set [1], the “Results of i.c. injection” value is given as “good results”.

For the compound `Cc1ccc(N(CC2=NCCN2)c2cccc(O)c2)cc1` [phentolamine], in data set [1], the “Results of i.c. injection” value is “good results”.

For the compound `CCCc1nn(C)c2c(=O)[nH]c(-c3cc(S(=O)(=O)N4CCN(C)CC4)ccc3OCC)nc12` [sildenafil citrate], in data set [7], the solubility amounted to 3500 µg/mL.

For the compound “vasoactive intestinal polypeptide (VIP): vasoactive intestinal polypeptide (HSDAVFTDNYTRLRKQMAVKKYLNSILN; ends and bridges not checked; UniProt P01282 125-152, looked up)”, in data set [1], the Activity i.c. result was “active i.c”.
